Here are results for one compound from publication PMC8205030, “Methoxy and bromo scans on N-(5-methoxyphenyl) methoxybenzenesulphonamides reveal potent cytotoxic compounds, especially against the human breast adenocarcinoma MCF7 cell line” (Journal of Enzyme Inhibition and Medicinal Chemistry, 2021).

The target in test [1] is T1, microtubular protein isolated from calf brain (Bos taurus, UniProt P81947+Q6B856).
T1 construct: isolated from calf brain according to the modified Shelanski method; from tissue; host or cells: calf brain
The test can be described thus: Inhibition of tubulin polymerisation (turbidity). Type of test: biochemical.

Test [2] deals with HT-29 cells. Briefly: Apoptotic cell death quantification (Annexin V-FITC/PI), HT-29. Type of test: cell-based, human. The settings on record: for Early apoptosis / Late apoptosis / Live (AnV–/PI–) / Necrosis: 72 h; for Apoptotic response: HT-29, 72 h. As to the method:
(§1) MCF7, HeLa, and HT-29 apoptotic cells were quantified using an Annexin V-FITC/PI apoptosis detection kit (Immunostep, Salamanca, Spain) according to the manufacturer’s guidelines. 1.5 ml/well of cells in the exponential growth phase at 2 × 10^4 cells/mL were seeded onto 12-well plates and left to attach overnight. After 24 h incubation, cells were treated with compound 25 at 87.5 or 175 nM. 72 h post-treatment, attached and floating cells of treated and untreated wells were collected, centrifuged, resuspended in the Annexin V binding buffer, and stained with Annexin V-FITC/PI. Cells were then incubated in darkness at room temperature for 15 min and a total of 30,000 cells were acquired and analysed using the BD Accuri™ C6 Plus Flow Cytometer and Software (version 1.0.264.21, BD Biosciences, San José, CA, USA), respectively. Compounds were dissolved in DMSO and the final solvent concentrations never exceeded 0.5% (v/v). Control wells included cells with 0.5% (v/v) DMSO.

The test system of test [3] is MCF7 cells. Briefly: Apoptotic cell death quantification (Annexin V-FITC/PI), MCF7. Type of test: cell-based, human. The settings on record: 72 h. As to the method: as §1
For test [4], the system named is HT-29 (human colon carcinoma) cells. The test can be described thus: Cell growth assay (XTT), HT-29, alone or with verapamil. The format is cell-based.

Read-outs that look alike come from different tables or passages of the source.

T1 sequence (Q6B856 whole entry): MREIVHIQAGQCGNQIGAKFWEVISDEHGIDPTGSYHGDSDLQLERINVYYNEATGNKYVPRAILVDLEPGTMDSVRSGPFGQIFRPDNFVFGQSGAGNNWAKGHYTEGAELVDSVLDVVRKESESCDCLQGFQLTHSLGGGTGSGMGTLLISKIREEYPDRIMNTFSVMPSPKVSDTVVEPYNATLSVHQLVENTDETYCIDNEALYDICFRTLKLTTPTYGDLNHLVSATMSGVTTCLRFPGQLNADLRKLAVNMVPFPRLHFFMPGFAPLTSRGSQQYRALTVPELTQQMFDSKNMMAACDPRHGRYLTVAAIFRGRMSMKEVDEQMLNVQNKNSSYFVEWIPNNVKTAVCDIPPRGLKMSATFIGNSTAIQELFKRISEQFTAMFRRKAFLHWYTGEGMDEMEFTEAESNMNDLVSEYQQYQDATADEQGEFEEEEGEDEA
T1 sequence (P81947 whole entry): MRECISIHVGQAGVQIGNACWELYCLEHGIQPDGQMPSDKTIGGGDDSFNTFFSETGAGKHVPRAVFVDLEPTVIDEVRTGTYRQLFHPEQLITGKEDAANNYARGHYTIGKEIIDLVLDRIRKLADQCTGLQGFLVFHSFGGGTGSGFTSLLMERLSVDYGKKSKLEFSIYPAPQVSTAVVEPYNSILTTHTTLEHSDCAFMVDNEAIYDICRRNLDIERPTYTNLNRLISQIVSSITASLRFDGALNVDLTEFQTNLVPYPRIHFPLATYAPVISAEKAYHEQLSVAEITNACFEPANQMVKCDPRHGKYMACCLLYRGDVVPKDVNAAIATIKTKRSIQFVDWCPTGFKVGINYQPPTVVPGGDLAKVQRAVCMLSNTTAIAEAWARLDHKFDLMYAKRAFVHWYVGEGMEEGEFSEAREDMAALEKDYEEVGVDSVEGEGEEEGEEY

As for `COc1ccc(S(=O)(=O)N(CC#N)c2cc(OC)c(Br)cc2OC)cc1` [Compound 25, N-(4-bromo-2,5-dimethoxyphenyl)-N-(cyanomethyl)-4-methoxybenzenesulphonamide], in test [1] (10 µM compound, 1.5 mg/mL microtubular protein), the “TPI % 10 µM” value is recorded as 51%. The concentration for half-maximal inhibition (IC50) in test [1] (in vitro tubulin polymerisation inhibition, read-out: TPI IC50) came out at 7.6 µM; in test [4] (72 h, in the presence of Pgp/MDR1 inhibitor verapamil (10 µM), read-out: Antiproliferative activity IC50 HT-29 Verap), 0.085 µM; in test [4] (Homo sapiens, HT-29, 72 h drug exposure, XTT, read-out: Antiproliferative activity IC50 HT-29), 0.097 µM. The Early apoptosis in test [2] (HT-29, 87.5 nM) was determined as 16.4%; in test [2] (HT-29, 175 nM), 20.4%; in test [3] (MCF7, 87.5 nM), 11.7%; in test [3] (MCF7, 175 nM) it was 23.8%. Further, the Late apoptosis in test [2] (HT-29, 87.5 nM) is reported as 6.8%; in test [2] (HT-29, 175 nM), 15.3%; in test [3] (MCF7, 87.5 nM), 5.8%; in test [3] (MCF7, 175 nM), 9.5%. Besides, the “Live (AnV–/PI–)” value in test [2] (HT-29, 87.5 nM) came out at 76.2%; in test [2] (HT-29, 175 nM), 61.7%; in test [3] (MCF7, 87.5 nM) it was 82.1%; in test [3] (MCF7, 175 nM) it was 65.7%. Further, the Necrosis in test [2] (HT-29, 87.5 nM) is 0.7%; in test [2] (HT-29, 175 nM), 2.5%; in test [3] (MCF7, 87.5 nM), 0.5%; in test [3] (MCF7, 175 nM), 1.0%. Besides, the Apoptotic response in test [2] (lower end of printed span (87.5 nM)) is on record as 23%; in test [2] (upper end of printed span (175 nM)), 36%. Also, the Apoptotic cells amounted to 33% in test [3] (MCF7, 175 nM) and 18% in test [3] (MCF7, lowest concentration (87.5 nM)).
